# Source: patent US5378838A, “Benzodiazepine cholecystokinin antagonists” (Merck & Co., Inc., priority 1993, dated 1995)
# pIC50: −log10 of the molar value. Non-standard residues stand in square brackets, D forms with d. Residues, ends and D or L forms follow the SMILES beside them. *: point of attachment. sY = N[C@@H](Cc1ccc(OS(=O)(=O)O)cc1)C(=O)O; Cbz = O=C(OCc1ccccc1)*
# Key:
# CCK = conditions: literature; cited from earlier work
# CCK-B receptors = conditions: literature; cited from earlier work
# CCK receptor (brain) = target: T1, CCK receptor (brain) (Cavia porcellus, UniProt H0VZC5); test: CCK Receptor Binding (Brain), inhibition of 125I-CCK-8 binding; design: species or system guinea pig (male Hartley); conditions: guinea pig cortex, 50 pM 125I-CCK-8, pH 6.5, 25° C., 2 hours
# T1 construct: the cortex was removed and homogenized in 25 mL ice-cold 0.32M sucrose; from tissue; host or cells: cortex P2 membranes of male Hartley guinea pigs
# T1 sequence (H0VZC5 1-426): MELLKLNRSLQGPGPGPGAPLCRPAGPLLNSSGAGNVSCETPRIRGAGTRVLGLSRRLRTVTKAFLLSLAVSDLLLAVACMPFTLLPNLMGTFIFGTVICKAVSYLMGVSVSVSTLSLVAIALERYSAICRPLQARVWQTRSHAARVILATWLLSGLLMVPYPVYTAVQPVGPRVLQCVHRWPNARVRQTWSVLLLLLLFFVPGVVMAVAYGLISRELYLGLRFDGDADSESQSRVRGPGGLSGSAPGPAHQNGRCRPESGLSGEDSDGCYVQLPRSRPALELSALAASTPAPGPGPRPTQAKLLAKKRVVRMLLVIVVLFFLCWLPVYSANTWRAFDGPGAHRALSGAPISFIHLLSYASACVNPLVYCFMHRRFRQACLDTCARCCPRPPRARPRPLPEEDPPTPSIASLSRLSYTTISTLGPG
# Description: CCK-8 sulphated was radiolabelled and the binding was performed according to the description for the pancreas method with minor modifications.
# Male Hartley guinea pigs (300-500g) were sacrificed by decapitation and the cortex was removed and homogenized in 25 mL ice-cold 0.32M sucrose. The homogenates were centrifuged at 1000 g for 10 minutes and the resulting supernatant was recentrifuged at 20,000 g for 20 minutes. […] All assays were run in duplicate. The reaction mixtures were incubated at 25° C. for 2 hours and then the reaction was terminated on Whatman GF/C filters by rapid filtration (Brandell 24 well cell Harvester) with 3×5 ml washes of cold 100 mM NaCl. The radioactivity on the filters was then counted with a LKB gamma counter.
# Drug displacement studies were performed with at least 10 concentrations of compounds of formula 1 and the IC50 values were determined by regression analysis. IC50 refers to the concentration of the compound required to inhibit 50% of specific binding of ^125 I-CCK-8.
# CCK receptor (pancreas) = target: T2, CCK receptor (pancreas) (Rattus norvegicus, UniProt P30551); test: CCK Receptor Binding (Pancreas), inhibition of 125I-CCK-8 binding; design: species or system rat (male Sprague-Dawley)
# T2 construct: The whole pancreas was dissected free of fat tissue and was homogenized; from tissue; host or cells: whole pancreas membranes of male Sprague-Dawley rats
# T2 sequence (P30551 1-444): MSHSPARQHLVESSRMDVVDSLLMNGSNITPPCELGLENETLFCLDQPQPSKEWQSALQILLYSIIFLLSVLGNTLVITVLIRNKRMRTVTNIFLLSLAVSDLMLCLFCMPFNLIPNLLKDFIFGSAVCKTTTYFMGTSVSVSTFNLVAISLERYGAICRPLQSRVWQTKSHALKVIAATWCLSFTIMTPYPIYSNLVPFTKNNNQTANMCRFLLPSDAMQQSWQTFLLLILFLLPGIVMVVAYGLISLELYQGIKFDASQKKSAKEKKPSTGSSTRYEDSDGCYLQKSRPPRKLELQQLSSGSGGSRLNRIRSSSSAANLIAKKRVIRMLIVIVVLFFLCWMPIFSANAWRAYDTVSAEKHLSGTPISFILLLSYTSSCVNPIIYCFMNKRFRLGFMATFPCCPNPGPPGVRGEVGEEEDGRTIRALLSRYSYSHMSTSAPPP
# Description: 1. CCK Receptor Binding (Pancreas)
# Male Sprague-Dawley rats (150-200 g) were sacrificed by decapitation. The whole pancreas was dissected free of fat tissue and was homogenized in 25 volumes of ice-cold 10 mM Hepes buffer with 0.1% soya bean trypsin inhibitor (pH 7.4 at 25° C.) with a Kinematica Polytron. The homogenates were centrifuged at 47,800 g for 10 min. Pellets were resuspended in 10 volumes of binding assay buffer (20 mM Hepes, 1 mM EGTA, 5 mM MgCl2, 150 mM NaCl, bacitracin 0.25 mg/ml, soya bean trypsin inhibitor 0.1 mg/ml, and bovine serum albumin 2 mg/ml, pH 6.5 at 25° C.) using a teflon homogenizer, 15 strokes at 500 rpm. The homogenate was further diluted in binding assay buffer to give a final concentration of 0.5 mg original wet weight/l ml buffer. […] All assays were run in duplicate. The reaction mixtures were incubated at 25° C. for 2 hours and the reaction terminated by rapid filtration (Brandell 24 well cell harvester) over Whatman GF/C filters, washing 3×4 mls with ice-cold 100 mM NaCl. The radioactivity on the filters was counted with a LKB gamma counter.
# Drug displacement studies were performed with at least 10 concentrations of compounds of formula 1 and the IC50 values were determined by regression analysis.
SMILES,CCK antagonist / agonist activity (in words) (CCK),antagonist of CCK-B receptors (in words) (CCK-B receptors),pIC50 (CCK receptor (brain)),pIC50 (CCK receptor (pancreas))
CSCC[C@H](NC(=O)[C@H](Cc1ccc(OS(=O)(=O)O)cc1)NC(=O)OCc1ccccc1)C(=O)NCC(=O)N[C@@H](Cc1c[nH]c2ccccc12)C(=O)N[C@@H](CCSC)C(=O)N[C@@H](CC(=O)O)C(N)=O [Cbz-Tyr(SO3 H)-Met-Gly-Trp-Met-Asp-NH2] (Cbz-[sY]MGWMD-NH2),partial agonist,,,
"Cc1cccc(NC(=O)N[C@@H]2N=C(c3ccccc3)c3ccccc3N(C)C2=O)c1 [(R)-N-(2,3-dihydro-1-methyl-2-oxo-5-phenyl-1H-1,4-benzodiazepin-3-yl)-N^1-(3-methylphenyl) urea]",,potent and selective antagonist of CCK-B receptors,,
CCCC(=O)Nc1nc2c(ncn2[C@@H]2O[C@@H]3COP(=O)(O)O[C@H]3[C@H]2OC(=O)CCC)c(=O)[nH]1 [dibutyryl cyclic GMP],the most potent,,,
"COC(=O)C1(N)CCc2ccc(NC(=O)N[C@@H]3N=C(c4ccccc4)c4ccccc4N(C)C3=O)cc2C1 (stereo partly drawn) [Example 16, N-{(3R)-1,3-Dihydro-1-methyl-2-oxo-5-phenyl-1H-1,4-benzodiazepin-3-yl}-N'-{[7-(methyl-2-(R,S)-amino-1,2,3,4-tetrahydro-2-naphthoate)]-urea}]",,,6.83,< 5.52
"COC(=O)[C@H](Cc1cccc(NC(=O)N[C@@H]2N=C(c3ccccc3)c3ccccc3N(C)C2=O)c1)NC(=O)OC(C)(C)C [Example 1, N-{(3R)-1,3-Dihydro-1-methyl-2-oxo-5-phenyl-1H-1,4-benzodiazepin-3-yl}-N'-{[3-((2S)-tertbutyloxycarbonylamino-2-methoxycarbonyl)ethylphenyl]urea}]",,,7.53,< 5.52
"COC(=O)[C@@H](N)c1cccc(NC(=O)N[C@@H]2N=C(c3ccccc3)c3ccccc3N(C)C2=O)c1 [Example 8, N-{(3R)-1,3-Dihydro-1-methyl-2-oxo-5-phenyl-1H-1,4-benzodiazepin-3-yl}-N'-{[3-((1S )-amino-1-methoxycarbonyl)methylphenyl]-urea}]",,,6.02,< 5.52
